{"source": "the supplement of paper PMC10307832"}
{"compound": "Cc1ccc2nc(NCCN)c3ncc(C)n3c2c1 + C[C@]1(O)C[C@@H](c2nc(-c3ccc4ccc(-c5ccccc5)nc4c3)c3c(N)nccn32)C1 [Linsitinib] (partner 1 µM)", "assay": "relative viability (nuclei count vs DMSO), 5 days (fraction); higher = more cells survive", "details": "first compound 4 µM", "method_in_brief": "(§1)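 The day after seeding in 1536-well plates, lung cancer cell lines were treated by pin tool with a single drug, or with a fixed anchor-drug dose together with five library-drug doses (not always all listed) in √10 steps. After 5 days, a combined fix-and-stain solution (final 0.05% Triton X-100, 1% formaldehyde, 1 ug/ml Hoechst) was added. Nuclei counted on 4× images gave relative viability as treated counts over vehicle counts, reported as the median of duplicate plates.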"}
{"cell line": "NCI-H1395", "relative viability": 0.955}
{"cell line": "NCI-H1299", "relative viability": 0.924}
{"compound": "Cc1ccc2nc(NCCN)c3ncc(C)n3c2c1 + C[C@@H](Oc1cc(-c2cnn(C3CCNCC3)c2)cnc1N)c1c(Cl)ccc(F)c1Cl [Crizotinib] (partner 1 µM)", "assay": "relative viability (nuclei count vs DMSO), 5 days (fraction); higher = more cells survive", "details": "first compound 0.04 µM", "method_in_brief": "as §1"}
{"cell line": "NCI-H727", "relative viability": 0.984}
{"cell line": "NCI-H1650", "relative viability": 0.965}
{"cell line": "EBC-1", "relative viability": 0.219}
{"cell line": "NCI-H1703", "relative viability": 0.89}
{"cell line": "NCI-H1993", "relative viability": 0.822}
{"cell line": "SW 1573", "relative viability": 0.924}
{"cell line": "NCI-H838", "relative viability": 0.844}
{"cell line": "LCLC-103H", "relative viability": 1.07}
{"cell line": "NCI-H520", "relative viability": 0.725}
{"cell line": "NCI-H2126", "relative viability": 1.04}
{"cell line": "EMC-BAC-2", "relative viability": 0.761}
{"cell line": "NCI-H2085", "relative viability": 1.01}
{"cell line": "Calu-6", "relative viability": 0.803}
{"cell line": "HCC-366", "relative viability": 0.642}
{"cell line": "NCI-H1666", "relative viability": 0.998}
{"cell line": "NCI-H596", "relative viability": 1.06}
{"cell line": "LK-2", "relative viability": 0.228}
{"cell line": "NCI-H2087", "relative viability": 1.1}
{"cell line": "NCI-H358", "relative viability": 0.613}
{"cell line": "NCI-H2170", "relative viability": 1.17}
{"cell line": "H3255", "relative viability": 0.939}
{"cell line": "IA-LM", "relative viability": 1.05}
{"cell line": "ChaGo-K-1", "relative viability": 1.17}
{"cell line": "A549", "relative viability": 0.826}
{"cell line": "NCI-H441", "relative viability": 0.904}
{"cell line": "NCI-H1299", "relative viability": 0.9}
{"compound": "Cc1ccc2nc(NCCN)c3ncc(C)n3c2c1 + C[C@@H](Oc1cc(-c2cnn(C3CCNCC3)c2)cnc1N)c1c(Cl)ccc(F)c1Cl [Crizotinib] (partner 1 µM)", "assay": "relative viability (nuclei count vs DMSO), 5 days (fraction); higher = more cells survive", "details": "first compound 0.1265 µM", "method_in_brief": "as §1"}
{"cell line": "NCI-H727", "relative viability": 0.82}
{"cell line": "NCI-H1650", "relative viability": 0.969}
{"cell line": "EBC-1", "relative viability": 0.204}
{"cell line": "NCI-H1703", "relative viability": 0.679}
{"cell line": "NCI-H1993", "relative viability": 0.896}
{"cell line": "SW 1573", "relative viability": 0.792}
{"cell line": "NCI-H838", "relative viability": 0.777}
{"cell line": "LCLC-103H", "relative viability": 1.03}
{"cell line": "NCI-H520", "relative viability": 0.699}
{"cell line": "NCI-H2126", "relative viability": 0.999}
{"cell line": "EMC-BAC-2", "relative viability": 0.728}
{"cell line": "NCI-H2085", "relative viability": 0.77}
{"cell line": "Calu-6", "relative viability": 0.776}
{"cell line": "HCC-366", "relative viability": 0.553}
{"cell line": "NCI-H1666", "relative viability": 1.01}
{"cell line": "NCI-H596", "relative viability": 0.929}
{"cell line": "LK-2", "relative viability": 0.258}
{"cell line": "NCI-H2087", "relative viability": 0.926}
{"cell line": "NCI-H358", "relative viability": 0.594}
{"cell line": "NCI-H2170", "relative viability": 1.14}
{"cell line": "H3255", "relative viability": 0.743}
{"cell line": "IA-LM", "relative viability": 0.945}
{"cell line": "ChaGo-K-1", "relative viability": 1.03}
{"cell line": "A549", "relative viability": 0.744}
{"cell line": "NCI-H441", "relative viability": 0.665}
{"cell line": "NCI-H1299", "relative viability": 0.937}
{"compound": "Cc1ccc2nc(NCCN)c3ncc(C)n3c2c1 + C[C@@H](Oc1cc(-c2cnn(C3CCNCC3)c2)cnc1N)c1c(Cl)ccc(F)c1Cl [Crizotinib] (partner 1 µM)", "assay": "relative viability (nuclei count vs DMSO), 5 days (fraction); higher = more cells survive", "details": "first compound 0.4 µM", "method_in_brief": "as §1"}
{"cell line": "NCI-H727", "relative viability": 0.779}
{"cell line": "NCI-H1650", "relative viability": 0.995}
{"cell line": "EBC-1", "relative viability": 0.206}
{"cell line": "NCI-H1703", "relative viability": 0.623}
{"cell line": "NCI-H1993", "relative viability": 0.811}
{"cell line": "SW 1573", "relative viability": 0.704}
{"cell line": "NCI-H838", "relative viability": 0.795}
{"cell line": "LCLC-103H", "relative viability": 1.05}
{"cell line": "NCI-H520", "relative viability": 0.761}
{"cell line": "NCI-H2126", "relative viability": 1.09}
{"cell line": "EMC-BAC-2", "relative viability": 0.735}
{"cell line": "NCI-H2085", "relative viability": 0.879}
{"cell line": "Calu-6", "relative viability": 0.794}
{"cell line": "HCC-366", "relative viability": 0.582}
{"cell line": "NCI-H1666", "relative viability": 0.874}
{"cell line": "NCI-H596", "relative viability": 1.03}
{"cell line": "LK-2", "relative viability": 0.214}
{"cell line": "NCI-H2087", "relative viability": 0.782}
{"cell line": "NCI-H358", "relative viability": 0.691}
{"cell line": "NCI-H2170", "relative viability": 1.1}
{"cell line": "H3255", "relative viability": 0.846}
{"cell line": "IA-LM", "relative viability": 0.631}
{"cell line": "ChaGo-K-1", "relative viability": 1.15}
{"cell line": "A549", "relative viability": 0.753}
{"cell line": "NCI-H441", "relative viability": 0.684}
{"cell line": "NCI-H1299", "relative viability": 0.951}
{"compound": "Cc1ccc2nc(NCCN)c3ncc(C)n3c2c1 + C[C@@H](Oc1cc(-c2cnn(C3CCNCC3)c2)cnc1N)c1c(Cl)ccc(F)c1Cl [Crizotinib] (partner 1 µM)", "assay": "relative viability (nuclei count vs DMSO), 5 days (fraction); higher = more cells survive", "details": "first compound 1.265 µM", "method_in_brief": "as §1"}
{"cell line": "NCI-H727", "relative viability": 0.811}
{"cell line": "NCI-H1650", "relative viability": 0.97}
{"cell line": "EBC-1", "relative viability": 0.207}
{"cell line": "NCI-H1703", "relative viability": 0.709}
{"cell line": "NCI-H1993", "relative viability": 0.812}
{"cell line": "SW 1573", "relative viability": 0.895}
{"cell line": "NCI-H838", "relative viability": 0.789}
{"cell line": "LCLC-103H", "relative viability": 1.07}
{"cell line": "NCI-H520", "relative viability": 0.791}
{"cell line": "NCI-H2126", "relative viability": 1}
{"cell line": "EMC-BAC-2", "relative viability": 0.733}
{"cell line": "NCI-H2085", "relative viability": 0.848}
{"cell line": "Calu-6", "relative viability": 0.77}
{"cell line": "HCC-366", "relative viability": 0.508}
{"cell line": "NCI-H1666", "relative viability": 0.852}
{"cell line": "NCI-H596", "relative viability": 0.961}
{"cell line": "LK-2", "relative viability": 0.222}
{"cell line": "NCI-H2087", "relative viability": 0.932}
{"cell line": "NCI-H358", "relative viability": 0.583}
{"cell line": "NCI-H2170", "relative viability": 1.21}
{"cell line": "H3255", "relative viability": 0.788}
{"cell line": "IA-LM", "relative viability": 0.787}
{"cell line": "ChaGo-K-1", "relative viability": 0.989}
{"cell line": "A549", "relative viability": 0.547}
{"cell line": "NCI-H441", "relative viability": 0.617}
{"cell line": "NCI-H1299", "relative viability": 0.917}
{"compound": "Cc1ccc2nc(NCCN)c3ncc(C)n3c2c1 + C[C@@H](Oc1cc(-c2cnn(C3CCNCC3)c2)cnc1N)c1c(Cl)ccc(F)c1Cl [Crizotinib] (partner 1 µM)", "assay": "relative viability (nuclei count vs DMSO), 5 days (fraction); higher = more cells survive", "details": "first compound 4 µM", "method_in_brief": "as §1"}
{"cell line": "NCI-H727", "relative viability": 0.925}
{"cell line": "NCI-H1650", "relative viability": 0.571}
{"cell line": "EBC-1", "relative viability": 0.17}
{"cell line": "NCI-H1703", "relative viability": 0.563}
{"cell line": "NCI-H1993", "relative viability": 0.826}
{"cell line": "SW 1573", "relative viability": 0.659}
{"cell line": "NCI-H838", "relative viability": 0.762}
{"cell line": "LCLC-103H", "relative viability": 1.06}
{"cell line": "NCI-H520", "relative viability": 0.639}
{"cell line": "NCI-H2126", "relative viability": 1.03}
{"cell line": "EMC-BAC-2", "relative viability": 0.775}
{"cell line": "NCI-H2085", "relative viability": 0.87}
{"cell line": "Calu-6", "relative viability": 0.426}
{"cell line": "HCC-366", "relative viability": 0.502}
{"cell line": "NCI-H1666", "relative viability": 0.907}
{"cell line": "NCI-H596", "relative viability": 0.851}
{"cell line": "LK-2", "relative viability": 0.238}
{"cell line": "NCI-H2087", "relative viability": 0.727}
{"cell line": "NCI-H358", "relative viability": 0.487}
{"cell line": "NCI-H2170", "relative viability": 1.06}
{"cell line": "H3255", "relative viability": 0.694}
{"cell line": "IA-LM", "relative viability": 0.631}
